From ChEMBL document CHEMBL5244216, “Pyrrole: An insight into recent pharmacological advances with structure activity relationship” (Eur J Med Chem, 2018)
Values after ≈ are worked out from the molar mass of the structure shown.

What was measured:
Pseudomonas aeruginosa = test: Antibacterial activity against Pseudomonas aeruginosa assessed as reduction in bacterial growth by broth microdilution method; assay type: functional, organism-based
Escherichia coli [1] = test: Antibacterial activity against Escherichia coli assessed as reduction in bacterial growth by broth microdilution method; assay type: functional, organism-based
Klebsiella pneumoniae [2] = test: Antibacterial activity against Klebsiella pneumoniae assessed as reduction in bacterial growth by broth microdilution method; assay type: functional, organism-based
[3] = system: Staphylococcus auricularis; test: Antibacterial activity against Staphylococcus auricularis assessed as reduction in bacterial growth by broth microdilution method; assay type: functional, organism-based
Bacillus subtilis [4] = test: Antibacterial activity against Bacillus subtilis assessed as reduction in bacterial growth by broth microdilution method; assay type: functional, organism-based
Rattus norvegicus [5] = test: Antihypertensive activity in Wistar rat assessed as decrease in systolic blood pressure at 20 mg/kg, po measured after 0.5 to 2 hrs by tail cuff method; assay type: functional; conditions: time 0.5-2 hrs
Bacillus subtilis [6] = test: Antibacterial activity against Bacillus subtilis MTCC 121 assessed as zone of inhibition at 800 ug/mL by disk diffusion method; assay type: functional; conditions: read-out: IZ
Staphylococcus aureus = test: Antibacterial activity against Staphylococcus aureus 22 assessed as zone of inhibition at 800 ug/mL by disk diffusion method; assay type: functional; conditions: read-out: IZ
Escherichia coli [7] = test: Antibacterial activity against Escherichia coli K12 assessed as zone of inhibition at 800 ug/mL by disk diffusion method; assay type: functional; conditions: read-out: IZ
Klebsiella pneumoniae [8] = test: Antibacterial activity against Klebsiella pneumoniae assessed as zone of inhibition at 800 ug/mL by disk diffusion method; assay type: functional; conditions: read-out: IZ
Rattus norvegicus [9] = test: Anti-inflammatory activity against carrageenan-induced acute paw edema in Wistar albino rat at 10 mg/kg assessed as inhibition of paw edema volume incubated for 3 hrs by Plethysmometric analysis relative to control; assay type: functional; set-up: scale not given: the % may be the effect or the level left
[10] = biological target: Tyrosine-protein kinase Lck (Homo sapiens, UniProt P06239); test: Inhibition of human recombinant Lck
[11] = Toxicity in Nilaparvata lugens assessed as mortality at 0.8 mg/L relative to control; conditions: at 0.8 µg/mL
[12] = system: Mycobacterium tuberculosis; test: Antitubercular activity against Mycobacterium tuberculosis H37Rv assessed as reduction in microbial growth by broth dilution method; assay type: functional
[13] = system: Mycobacterium tuberculosis; test: Antitubercular activity against Mycobacterium tuberculosis 103471 assessed as reduction in bacterial growth; assay type: functional
[14] = system: Human immunodeficiency virus 1; test: Antiviral activity against HIV-1; assay type: functional, organism-based
Rattus norvegicus [15] = test: Anti-inflammatory activity against carrageenan-induced acute paw edema in Wistar albino rat at 10 mg/kg assessed as inhibition of paw edema incubated for 3 hrs by Plethysmometric analysis relative to control; assay type: functional; set-up: scale not given: the % may be the effect or the level left
Rattus norvegicus [16] = test: Anti-inflammatory activity against carrageenan-induced acute paw edema in Wistar albino rat at 10 mg/kg assessed as inhibition of paw edema incubated for 5 hrs by Plethysmometric analysis relative to control; assay type: functional; set-up: scale not given: the % may be the effect or the level left
[17] = system: Mycobacterium tuberculosis; test: Antitubercular activity against Mycobacterium tuberculosis H37Rv assessed as reduction in bacterial growth by microplate alamar blue assay; assay type: functional
[18] = Inhibition of maize HD2; set-up: species or system Zea mays
[19] = Inhibition of maize HD1-B; set-up: species or system Zea mays
[20] = Inhibition of maize HD1-A; set-up: species or system Zea mays
[21] = Cytotoxicity activity against human Eca-109 cells assessed as reduction in cell viability measured after 48 hrs by MTT assay; assay type: toxicity, cell-based
[22] = Cytotoxicity activity against human PC-3 cells assessed as reduction in cell viability measured after 48 hrs by MTT assay; assay type: toxicity, cell-based
[23] = Cytotoxicity activity against human SMMC-7721 cells assessed as reduction in cell viability measured after 48 hrs by MTT assay; assay type: toxicity, cell-based
[24] = system: Human immunodeficiency virus; test: Antiviral activity against HIV-CBL 20 infected in MT-4 cells assessed as viral replication measured after 4 days by ELISA; assay type: functional, organism-based; conditions: Human immunodeficiency virus 1, CBL 20, MT4, 96 h
[25] = Cytotoxicity activity against human MCF7 cells assessed as reduction in cell viability measured after 72 hrs by MTT assay; assay type: toxicity, cell-based
[26] = Cytotoxicity activity against human MOLT-4 cells assessed as reduction in cell viability measured after 72 hrs by MTT assay; assay type: toxicity, cell-based
[27] = Cytotoxicity activity against human HL-60 cells assessed as reduction in cell viability measured after 72 hrs by MTT assay; assay type: toxicity, cell-based
MDA-MB-231 = test: Antiproliferative activity against human MDA-MB-231 cells by SRB assay
Cannabinoid receptor 1 = Cannabinoid receptor 1 (Rattus norvegicus, UniProt P20272); test: Binding affinity to rat CB1 receptor
Cannabinoid receptor 2 = Cannabinoid receptor 2 (Homo sapiens, UniProt P34972); test: Binding affinity to human recombinant CB2 receptor
[28] = Cytotoxicity activity against human A549 cells assessed as reduction in cell viability measured after 48 hrs by MTT assay; assay type: toxicity, cell-based
Rattus norvegicus [29] = test: Anti-inflammatory activity against carrageenan-induced acute paw edema in Wistar albino rat at 100 mg/kg assessed as inhibition of paw edema volume incubated for 3 hrs by Plethysmometric analysis relative to control; assay type: functional; set-up: scale not given: the % may be the effect or the level left

Cannabinoid receptor 1, sequence (P20272 whole entry): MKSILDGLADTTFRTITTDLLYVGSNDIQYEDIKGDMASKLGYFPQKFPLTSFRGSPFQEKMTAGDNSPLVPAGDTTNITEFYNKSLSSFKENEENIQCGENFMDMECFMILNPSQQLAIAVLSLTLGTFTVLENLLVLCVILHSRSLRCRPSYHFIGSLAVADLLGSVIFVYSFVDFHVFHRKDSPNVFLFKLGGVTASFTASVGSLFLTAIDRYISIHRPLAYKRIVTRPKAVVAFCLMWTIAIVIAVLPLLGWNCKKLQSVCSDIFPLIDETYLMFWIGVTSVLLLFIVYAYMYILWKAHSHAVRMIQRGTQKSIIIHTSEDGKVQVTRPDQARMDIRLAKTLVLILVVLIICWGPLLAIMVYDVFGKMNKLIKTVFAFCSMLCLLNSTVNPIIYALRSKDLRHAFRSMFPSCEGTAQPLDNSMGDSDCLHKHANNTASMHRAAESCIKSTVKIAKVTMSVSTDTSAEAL
Cannabinoid receptor 2, sequence (P34972 whole entry): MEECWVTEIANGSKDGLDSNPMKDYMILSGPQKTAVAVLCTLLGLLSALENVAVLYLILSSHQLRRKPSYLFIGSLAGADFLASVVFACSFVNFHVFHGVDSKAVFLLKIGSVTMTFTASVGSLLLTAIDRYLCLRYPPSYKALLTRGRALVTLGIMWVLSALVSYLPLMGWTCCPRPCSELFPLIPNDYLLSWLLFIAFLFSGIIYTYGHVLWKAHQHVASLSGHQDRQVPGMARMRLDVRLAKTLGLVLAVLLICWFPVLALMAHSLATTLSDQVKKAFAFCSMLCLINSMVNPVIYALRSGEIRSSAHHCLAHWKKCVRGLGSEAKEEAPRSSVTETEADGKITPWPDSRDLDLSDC
Tyrosine-protein kinase Lck, sequence (P06239 whole entry): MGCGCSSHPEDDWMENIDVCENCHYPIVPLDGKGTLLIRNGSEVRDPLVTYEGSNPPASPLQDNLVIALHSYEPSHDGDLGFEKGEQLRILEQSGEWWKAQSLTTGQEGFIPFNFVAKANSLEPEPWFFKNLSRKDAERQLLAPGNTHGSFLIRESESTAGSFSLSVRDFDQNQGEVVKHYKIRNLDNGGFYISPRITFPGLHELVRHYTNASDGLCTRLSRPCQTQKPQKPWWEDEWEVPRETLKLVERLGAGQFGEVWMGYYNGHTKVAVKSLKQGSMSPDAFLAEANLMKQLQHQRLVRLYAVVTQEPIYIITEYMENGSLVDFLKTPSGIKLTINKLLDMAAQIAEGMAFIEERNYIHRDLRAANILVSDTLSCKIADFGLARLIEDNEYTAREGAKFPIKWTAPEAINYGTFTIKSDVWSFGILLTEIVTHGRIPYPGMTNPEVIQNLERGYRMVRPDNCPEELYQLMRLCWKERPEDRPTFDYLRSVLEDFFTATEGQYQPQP

CN(C)[C@@H]1C(O)=C(C(N)=O)C(=O)[C@@]2(O)C(O)=C3C(=O)c4c(O)cccc4[C@@](C)(O)[C@H]3C[C@@H]12 [TETRACYCLINE]
IC50 (Pseudomonas aeruginosa): 1.25 µM
IC50 (Escherichia coli [1]): 10 µM
IC50 (Klebsiella pneumoniae [2]): 0.312 µM
IC50 [3]: 10 µM
IC50 (Bacillus subtilis [4]): 1.25 µM

CCOC(=O)c1cc(-c2ccc([N+](=O)[O-])cc2)n(-c2ccc(C3=NNC(=O)CC3)cc2)c1C
Activity (Rattus norvegicus [5]): 70.3 mmHg

CCCCCCC(O)C/C=C/CCCCCCCCC(=O)Nn1c(C)ccc1C (configuration not stated)
zone of inhibition at 800 µg/mL (Bacillus subtilis [6]): 19 mm
zone of inhibition at 800 µg/mL (Staphylococcus aureus): 18 mm
zone of inhibition at 800 µg/mL (Escherichia coli [7]): 21 mm
zone of inhibition at 800 µg/mL (Klebsiella pneumoniae [8]): 20 mm

CN1C(C(=O)Nc2ccccn2)=C(O)c2ccccc2S1(=O)=O [PIROXICAM]
Activity (Rattus norvegicus [9]): 59%

O=C(O)c1cn(C2CC2)c2cc(N3CCNCC3)c(F)cc2c1=O [CIPROFLOXACIN]
zone of inhibition at 800 µg/mL (Bacillus subtilis [6]): 18 mm
zone of inhibition at 800 µg/mL (Staphylococcus aureus): 20 mm
zone of inhibition at 800 µg/mL (Klebsiella pneumoniae [8]): 23 mm

NC(=O)c1c(-c2ccc(Oc3ccccc3)cc2)[nH]c(C(=O)c2c(F)cccc2F)c1N
IC50 [10]: 0.0011 µM

CCOc1c([N+](=O)[O-])c2n(c1C)CCN2Cc1cnc(Cl)s1
mortality [11]: 50%

Cc1ccc(C)n1-c1ccc(C(=O)n2[nH]c(=O)c3ccccc3c2=O)cc1
MIC [12]: 0.4 µg/mL

CN[C@@H]1[C@H](O[C@H]2[C@H](O[C@H]3[C@H](O)[C@@H](O)[C@H](N=C(N)N)[C@@H](O)[C@@H]3N=C(N)N)O[C@@H](C)[C@]2(O)C=O)O[C@@H](CO)[C@H](O)[C@H]1O [STREPTOMYCIN]
MIC [13]: 0.5 µg/mL (≈ 0.86 µM)

Cc1c[nH]c(C(=O)N/N=C(/N=N/c2ccccc2)c2ccccc2O)c1C
IC50 (Pseudomonas aeruginosa): 15.6 µM
IC50 (Escherichia coli [1]): 15.6 µM
IC50 (Klebsiella pneumoniae [2]): 15.6 µM
IC50 [3]: 460 µM
IC50 (Bacillus subtilis [4]): 460 µM

CCCCc1c(COC(N)=O)cn(Cc2ccncc2)c1Sc1cc(Cl)cc(Cl)c1
EC50 [14]: 0.007 µM

O=C(Nc1nnc(-c2ccccc2)s1)c1c[nH]cc1-c1ccc([N+](=O)[O-])cc1
Activity (Rattus norvegicus [15]): 76.24%
Activity (Rattus norvegicus [16]): 78.62%

O=C([O-])Cc1ccccc1Nc1c(Cl)cccc1Cl.[Na+] [DICLOFENAC SODIUM]
Activity (Rattus norvegicus [9]): 68%

CCOc1cc(C2OC(c3ccc(-n4cccc4)cc3)=NN2C(C)=O)ccc1O (configuration not stated)
MIC [12]: 0.2 µg/mL

NNC(=O)c1ccncc1 [ISONIAZID]
MIC [17]: 7.9 µg/mL (≈ 57.6 µM)
MIC [12]: 0.2 µg/mL
MIC [13]: 0.25 µg/mL (≈ 1.82 µM)

CC(C(=O)c1cc(/C=C/C(=O)NO)n(C)c1)c1ccccc1 (configuration not stated)
IC50 [18]: 0.112 µM
IC50 [19]: 0.015 µM
IC50 [20]: 0.028 µM

CN1C(=O)C(c2ccc[nH]2)=C(c2c[nH]c3ccc(Br)cc23)C1=O
IC50 at 48 h [21]: 6.21 µM
IC50 at 48 h [22]: 2.16 µM
IC50 at 48 h [23]: 29.7 µM

CC(/C=C/C(=O)NO)=C\[C@@H](C)C(=O)c1ccc(N(C)C)cc1 [TRICHOSTATIN]
IC50 [18]: 0.007 µM
IC50 [19]: 0.0004 µM
IC50 [20]: 0.0008 µM

O=[N+]([O-])c1ccccc1S(=O)(=O)c1ccccc1
EC50 [24]: 3.4 µM

CC[C@@H](CO)NCCN[C@@H](CC)CO [ETHAMBUTOL]
MIC [12]: 0.5 µg/mL

COC(=O)c1c(C2C(=O)N(C)C(=O)N(C)C2=O)c(-c2ccccc2)n(-c2ccc(OC)c(S(=O)(=O)N3CCOCC3)c2)c1C(=O)OC
IC50 at 72 h [25]: 39 µM
IC50 at 72 h [26]: 25.5 µM
IC50 at 72 h [27]: 30.6 µM

Cc1c(CN2CCSCC2)cc(-c2ccccc2F)n1-c1ccccc1F
MIC [13]: 1 µg/mL (≈ 2.6 µM)

CCCC/C=C/CCC(O)CCCCCCCC(=O)Nn1c(C)ccc1C (configuration not stated)
zone of inhibition at 800 µg/mL (Bacillus subtilis [6]): 18 mm
zone of inhibition at 800 µg/mL (Staphylococcus aureus): 20 mm
zone of inhibition at 800 µg/mL (Escherichia coli [7]): 22 mm
zone of inhibition at 800 µg/mL (Klebsiella pneumoniae [8]): 21 mm

COc1cc2c(c(OC)c1OC)-c1ccc(OC)c(=O)cc1[C@@H](NC(C)=O)CC2 [COLCHICINE]
IC50 (MDA-MB-231): 2 µM

O=[N+]([O-])NC1=NCCN1Cc1ccc(Cl)nc1 [IMIDACLOPRID]
mortality [11]: 40%

CCCCCn1c(C)c(Br)c(C(=O)c2cccc3ccccc23)c1C
EC50 (Cannabinoid receptor 1): 0.0133 µM
EC50 (Cannabinoid receptor 2): 0.0068 µM

CO[C@H]1/C=C/O[C@@]2(C)Oc3c(C)c(O)c4c(O)c(c(/C=N/N5CCN(C)CC5)c(O)c4c3C2=O)NC(=O)/C(C)=C\C=C\[C@H](C)[C@H](O)[C@@H](C)[C@@H](O)[C@@H](C)[C@H](OC(C)=O)[C@@H]1C [RIFAMPIN]
MIC [12]: 0.4 µg/mL
MIC [13]: 0.3 µg/mL (≈ 0.365 µM)

O=C1NC(=O)C(c2c[nH]c3ccccc23)=C1c1c[nH]c2ccccc12 [RO-316233]
IC50 at 48 h [21]: 15.9 µM
IC50 at 48 h [22]: 10.3 µM
IC50 at 48 h [23]: 13.2 µM
IC50 at 48 h [28]: 4.14 µM

NC(=O)N1C(=O)/C(=C(\[O-])c2cccs2)c2cc(Cl)ccc21.[Na+] [TENIDAP SODIUM]
Activity (Rattus norvegicus [9]): 60%

O=C(N/N=C/c1ccc(C(c2cccc([N+](=O)[O-])c2)c2ccc(/C=N/NC(=O)c3ccncc3)[nH]2)[nH]1)c1ccncc1
MIC [17]: 7.9 µg/mL (≈ 14.1 µM)

COc1ccc2c(c1)c(CC(=O)O)c(C)n2C(=O)c1ccc(Cl)cc1 [INDOMETHACIN]
Activity (Rattus norvegicus [15]): 74.82%
Activity (Rattus norvegicus [16]): 80.32%

CCOC(=O)c1cccn1S(=O)(=O)c1ccccc1[N+](=O)[O-]
EC50 [24]: 15.1 µM

O=C(O)Cn1c(C(=O)O)c(C(=O)c2cccs2)c2sc(C(=O)O)cc21
Activity (Rattus norvegicus [29]): 36%

NNc1nncc2ccccc12 [HYDRALAZINE]
Activity (Rattus norvegicus [5]): 83.59 mmHg
